Results from ChEMBL document CHEMBL1145674, “Isolation and identification of "diazepam-like" compounds from bovine urine” (J Nat Prod, 1983).

Tested on: not listed separately
Experiment: Displacement of [3H]diazepam from benzodiazepine receptor in rat cerebral cortex membrane
Assay type: cell membranes

| SMILES | IC50 [µM] |
| --- | --- |
| O=c1c(-c2cccc(O)c2)coc2cc(O)ccc12 | 140 |
| Oc1cccc(C2COc3cc(O)ccc3C2)c1 (racemic) | 45 |
| COc1ccc2c(c1)OCC(c1ccc(O)cc1)C2 (racemic) | 1300 |
| COc1ccc(C2COc3cc(O)ccc3C2)cc1 (racemic) | 1500 |
| Oc1ccc([C@H]2COc3cc(O)ccc3C2)cc1 [AUS-131] | 80 |
| CN1C(=O)CN=C(c2ccccc2)c2cc(Cl)ccc21 [DIAZEPAM] | 0.005 |
| COc1ccc(-c2coc3cc(O)ccc3c2=O)cc1 [FORMONONETIN] | 700 |
| O=c1[nH]cnc2nc[nH]c12 [HYPOXANTHINE] | 700 |
| O=c1[nH]cnc2c1ncn2[C@@H]1O[C@H](CO)[C@@H](O)[C@H]1O [INOSINE] | 900 |
| COc1ccc2c(=O)c(-c3ccc(O)cc3)coc2c1 [ISOFORMONENTIN] | 1100 |
| NC(=O)c1cccnc1 [NIACINAMIDE] | 3900 |

Species: Rattus norvegicus
Experiment: Increase in [3H]diazepam binding to benzodiazepine receptor in rat cerebral cortex membrane at 0.5 mM relative to control
Assay type: cell membranes

| SMILES | Activity [%] |
| --- | --- |
| Clc1ccc2[nH]c3ccccc3c2c1 | 143 |

Species: Rattus norvegicus
Experiment: Increase in [3H]diazepam binding to benzodiazepine receptor in rat cerebral cortex membrane at 1 mM relative to control
Assay type: cell membranes

| SMILES | Activity [%] |
| --- | --- |
| Clc1ccc2[nH]c3ccccc3c2c1 | 172 |
